Reference: US11535632B2, “Solid forms of an S1P-receptor modulator” (ESCAPE Bio, Inc., priority 2019, dated 2022)
“Also recorded” adds a separate entry of the source.

What was measured:
Type in all cases: physicochemical
Water activity study = assay: Water activity study
Experimental: About 15 mg of Form A and 15 mg of Form B were added to the saturated solutions of different water activities and equilibrated at 25° C. and 50° C. for 4 days, respectively. The resulting suspensions were filtered, and the solid parts (wet cake) were investigated by XRPD to determine the polymorph.
According to XRPD results, Form B was obtained in methanol/water with water activity (a.w.) ranging from 0.1 to 0.9 at 25° C., as shown in FIGS. 20A-20B. At 50° C., Form B was obtained in methanol/water with a.w. ≥0.2, whereas a mixture of Form A and Form B was obtained in a.w. […] The water activity of the binary solvent system was calculated based on UNIFAC method (UNIQUAC Functional-group Activity Coefficients).

[1] = Room temperature equilibrium solubility in aqueous suspensions; conditions: listed as Compound 1, Form B; for Total drug in solution: room temperature equilibrium, HPLC of supernatant
[2] = Solid state stability study
Excerpt: The two lots of Compound 1 were characterized by HPLC, PLM, XRPD, DSC, TGA, and KF. […] According to the stability study at different conditions, the two forms of compound were practically stable at different humidity for at least 4 weeks, with no XRPD pattern change and no growth of impurities were found.

[3] = Competitive slurries of Form B and C in process relevant solvents
Experimental: Determination of the relative stabilities of Form B and Form C was undertaken to identify which material was more thermodynamically stable in process relevant solvents. As a suspected solvate was isolated from experiments where DMAC was used as a solvent, only DMSO and acetic acid were determined to be appropriate process solvents. Combinations of these solvents with relevant antisolvents were therefore selected for the competitive slurry experiments.
Compound 1 (from Example 2) was dispensed into HPLC vials. To these, 1 ml of selected solvents was subsequently added to give a suspension. Materials were slurried for 72 hours at 90° C., 50° C. or 25° C. with 500 rpm stirring. Material was subsequently isolated by centrifugation and analyzed by XRPD.

[4] = Hygroscopicity evaluation by DVS at 25° C.
Experimental: Hygroscopicity of Compound 1, Form A and Compound 1, Form B was evaluated by DVS at 25° C.

[5] = Storage for one week at controlled temperature/humidity, XRPD
Experimental: PLM images obtained of the particles show them to be a mixture of laths and larger aggregates typical of an uncontrolled antisolvent crystallization. A peak corresponding to 0.16 molar equivalents of acetic acid is present in the ^1H-NMR spectrum. […] It is evident from the corresponding DSC thermogram that this mass loss coincides with melting of the material (endotherm at 237.7° C.).

[6] = Variable temperature XRPD; conditions: heated in situ to 150° C. at 10° C./min; new form denoted Form E
Experimental: For variable temperature (VT-XRPD) experiments the samples were prepared and analysed in an Anton Paar chromed sample holder with silicon wafer insert. A heating/cooling rate of 10° C./min was used with a 2 min isothermal hold before the measurement started. The measurement parameters are as per the standard screening data collection method (detailed above). Measurements were taken at the following temperatures: 25° C., 150° C. and 25° C.
Compound 1 Form B was analyzed using the Empyrean XRPD at a temperature of 25° C. The sample was then heated in situ using the variable temperature stage to 150° C. at a ramp rate of 10° C./min and held isothermally for 2 minutes whereupon a second XRPD measurement was made. The sample was then cooled to 25° C. at a ramp rate of 10° C./min held isothermally for 2 minutes whereupon a third XRPD measurement was made.

Structure (SMILES): O=C(O)[C@H]1C[C@@H](N2CCc3oc(-c4ccc(OCc5ccc(Cl)cc5)cc4)nc3C2)C1 [Form B, (1s,3s)-3-(2-(4-((4-chlorobenzyl)oxy)phenyl)-6,7-dihydrooxazolo[4,5-c]pyridin-5(4H)-yl)cyclobutane-1-carboxylic acid]
- critical water activity between Form A and Form B (Water activity study; 25° C., methanol/water): less than 0.1
- Relative stability of forms (Water activity study; ambient condition): more stable than Form A
- Total drug in solution ([1]; 0.2% HPMC aqueous suspension): <1 µg/mL
- pH ([1]; 0.2% HPMC aqueous suspension): 6.7
- Total drug in solution ([1]; 0.25% SLS aqueous suspension): 7.8 µg/mL
- pH ([1]; 0.25% SLS aqueous suspension): 6.0
- Total drug in solution ([1]; 20% HP-BCD aqueous suspension): 74.2 µg/mL
- pH ([1]; 20% HP-BCD aqueous suspension): 6.1
- Crystallinity (XRPD & PLM) ([2]; 4 weeks, 25° C./60% RH): Crystalline
- Purity ([2]; 4 weeks, 25° C./60% RH): 99.55%
- Weight loss (TGA) (~120° C.) ([2]; 4 weeks, 25° C./60% RH): 2.374%
- Crystallinity (XRPD & PLM) ([2]; 4 weeks, 40° C./75% RH): Crystalline
- Purity ([2]; 4 weeks, 40° C./75% RH): 99.55%
- Weight loss (TGA) (~120° C.) ([2]; 4 weeks, 40° C./75% RH): 2.319%
- Crystallinity (XRPD & PLM) ([2]; 6 weeks, 25° C./60% RH): Crystalline
- Purity ([2]; 6 weeks, 25° C./60% RH): 99.54%
- Water content ([2]; 6 weeks, 25° C./60% RH): 3.361%
- Weight loss (TGA) (~120° C.) ([2]; 6 weeks, 25° C./60% RH): 2.364%
- Crystallinity (XRPD & PLM) ([2]; 6 weeks, 40° C./75% RH): Crystalline
- Purity ([2]; 6 weeks, 40° C./75% RH): 99.53%
- Water content ([2]; 6 weeks, 40° C./75% RH): 3.301%
- Weight loss (TGA) (~120° C.) ([2]; 6 weeks, 40° C./75% RH): 2.276%
- Crystallinity (XRPD & PLM) ([2]; 8 weeks, 25° C./60% RH): Crystalline
- Purity ([2]; 8 weeks, 25° C./60% RH): 99.54%
- Water content ([2]; 8 weeks, 25° C./60% RH): 3.830%
- Weight loss (TGA) (~120° C.) ([2]; 8 weeks, 25° C./60% RH): 2.943%
- Crystallinity (XRPD & PLM) ([2]; 8 weeks, 40° C./75% RH): Crystalline
- Purity ([2]; 8 weeks, 40° C./75% RH): 99.55%
- Water content ([2]; 8 weeks, 40° C./75% RH): 3.494%
- Weight loss (TGA) (~120° C.) ([2]; 8 weeks, 40° C./75% RH): 3.809%
- Crystallinity (XRPD & PLM) ([2]; Initial): Crystalline
- Purity ([2]; Initial): 99.54%
- Water content ([2]; Initial): 3.677%
- Weight loss (TGA) (~120° C.) ([2]; Initial): 2.233%
- Relative thermodynamic stability ([3]; acetic acid mixtures and temperatures investigated): more thermodynamically stable than Form C
- Relative thermodynamic stability ([3]; majority of experimental conditions assessed): more thermodynamically stable than Form C
- DVS Desorp. (%) ([4]; 0% RH, 1st Desorp.): 0.01%
- DVS Sorp. (%) ([4]; 0% RH, 2nd Sorp.): 0.01%
- DVS Desorp. (%) ([4]; 10% RH, 1st Desorp.): 0.95%
- DVS Sorp. (%) ([4]; 10% RH, 2nd Sorp.): 0.65%
- DVS Desorp. (%) ([4]; 20% RH, 1st Desorp.): 1.03%
- DVS Sorp. (%) ([4]; 20% RH, 2nd Sorp.): 0.96%
- DVS Desorp. (%) ([4]; 30% RH, 1st Desorp.): 1.08%
- DVS Sorp. (%) ([4]; 30% RH, 2nd Sorp.): 1.00%
- DVS Desorp. (%) ([4]; 40% RH, 1st Desorp.): 1.14%
- DVS Sorp. (%) ([4]; 40% RH, 1st Sorp.): 1.09%
- DVS Desorp. (%) ([4]; 40% RH, 2nd Desorp.): 1.06%
- DVS Sorp. (%) ([4]; 40% RH, 2nd Sorp.): 1.03%
- DVS Desorp. (%) ([4]; 50% RH, 1st Desorp.): 1.18%
- DVS Sorp. (%) ([4]; 50% RH, 1st Sorp.): 1.10%
- DVS Desorp. (%) ([4]; 50% RH, 2nd Desorp.): 1.11%
- DVS Sorp. (%) ([4]; 50% RH, 2nd Sorp.): 1.06%
- DVS Desorp. (%) ([4]; 60% RH, 1st Desorp.): 1.21%
- DVS Sorp. (%) ([4]; 60% RH, 1st Sorp.): 1.14%
- DVS Desorp. (%) ([4]; 60% RH, 2nd Desorp.): 1.10%
- DVS Sorp. (%) ([4]; 60% RH, 2nd Sorp.): 1.09%
- DVS Desorp. (%) ([4]; 70% RH, 1st Desorp.): 1.26%
- DVS Sorp. (%) ([4]; 70% RH, 1st Sorp.): 1.18%
- DVS Desorp. (%) ([4]; 70% RH, 2nd Desorp.): 1.13%
- DVS Sorp. (%) ([4]; 70% RH, 2nd Sorp.): 1.12%
- DVS Desorp. (%) ([4]; 80% RH, 1st Desorp.): 1.28%
- DVS Sorp. (%) ([4]; 80% RH, 1st Sorp.): 1.22%
- DVS Desorp. (%) ([4]; 80% RH, 2nd Desorp.): 1.18%
- DVS Sorp. (%) ([4]; 80% RH, 2nd Sorp.): 1.17%
- DVS Desorp. (%) ([4]; 90% RH, 1st Desorp.): 1.33%
- DVS Sorp. (%) ([4]; 90% RH, 1st Sorp.): 1.29%
- DVS Desorp. (%) ([4]; 90% RH, 2nd Desorp.): 1.24%
- DVS Sorp. (%) ([4]; 90% RH, 2nd Sorp.): 1.22%
- DVS Desorp. (%) ([4]; 95% RH, 1st Desorp.): 1.38%
- DVS Sorp. (%) ([4]; 95% RH, 1st Sorp.): 1.38%
- DVS Desorp. (%) ([4]; 95% RH, 2nd Desorp.): 1.30%
- DVS Sorp. (%) ([4]; 95% RH, 2nd Sorp.): 1.30%
- Hygroscopicity based on DVS results ([4]; listed as Compound 1, Form B): slightly hygroscopic
- XRPD after DVS test ([4]; listed as Compound 1, Form B): no form change
- XRPD after storage ([5]; 25° C./97% RH for one week): did not result in changes to material as measured by XRPD; also recorded: Unchanged by XRPD
- XRPD after storage ([5]; 40° C./75% RH for one week): did not result in changes to material as measured by XRPD; also recorded: Unchanged by XRPD
- XRPD after heating [6]: change in Form by XRPD
